Publication PMC5312321, “A general strategy to optimize immunogenicity of HLA-B*0702 restricted cryptic peptides from tumor associated antigens: Design of universal neo-antigen like tumor vaccines for HLA-B*0702 positive patients” (Oncotarget, 2016)

What was measured:
HLA-B*0702 = target: T1, HLA-B*0702 (Homo sapiens, UniProt P01889); experiment: Measurement of peptide relative affinity to HLA-B*0702 (surface expression on T2-B7 cells); assay type: cell-based
T1 construct: expressed in transfected cells; host or cells: human T2-B7 cells (T2 transfected with HLA-B*0702)
Protocol: The protocol used has been described previously. Briefly, T2-B7 cells were incubated at 37°C for 16 hours with peptides concentrations ranging from 100 μM to 0.1 μM (100 μM, 10 μM, 1 μM and 0.1μM), and then stained with ME-1 monoclonal antibody (mAb) to quantify the surface expression of HLA-B*0702. For each peptide concentration, the HLA-B*0702 specific staining was calculated as the percentage of staining obtained with 100 μM of the reference peptide CMV265–274 (R10V; […], SEQ ID NO: 9). The relative affinity (RA) was determined as: RA = (Concentration of each peptide that induces 20% of HLA-B*0702-expression/Concentration of the reference R10V peptide that induces 20% of HLA-B*0702 expression). In case of non-binders peptide, RA is not evaluable since the 20% of HLA-B*0702 expression is not reach even with the highest concentration of peptide.

[1] = test system: CD8+ T cells from healthy donors; experiment: In vitro induction of specific CTLs from PBMC of healthy HLA-B*0702 donors (IFNγ intracellular staining or ELISPOT); assay type: cell-based, human; conditions: for immunogenicity in vitro in human PBMC (in words): CD8+ T cells from healthy donors, four stimulations with peptide loaded autologous DC; for Immunogenicity against optimized peptide (number of positive culture/number of total cultures): human healthy donor PBMC stimulated with optimized peptide loaded DC, T2-B7 cells loaded with optimized peptide
Protocol: CD8+ T cells from healthy donors were in vitro stimulated with autologous dendritic cells loaded with each optimized cryptic peptide. After four stimulations, proliferating cells were tested for the presence of IFNγ producing CTLs upon stimulation with T2-B7 cells loaded with optimized or native peptides either by intracellular IFNγ staining or by IFNγ ELISPOT assay.
PBMC were collected by leukapheresis from healthy HLA-A*B702 volunteers. Dendritic cells (DC) were produced from adherent cells cultured with 500 IU/ml GM-CSF and 500 IU/ml IL-4, in complete synthetic medium (AIMV) for seven days. On day 7, DCs were pulsed with 10 μM of peptide during 2 hours and CD8^+ cells were purified by negative selection with CD8 Dynabeads Untouched Human CD8. CD8^+ cells (2 × 10^5) + CD8^− cells (6 × 10^4) were stimulated with 3 × 10^4 peptide-pulsed DC in AIMV medium supplemented with 1000 IU/ml IL-6 and 5 IU/ml IL-12 in round-bottomed 96-well plates.
From day 7, cultures were stimulated weekly with peptide-loaded DC in the presence of 20 IU/ml IL-2 and 10 ng/ml IL-7, 1 μg/ml anti-CD40 and 500 IU/ml IFNγ.
After the third stimulation, CD8 cells were maintained in AIMV supplemented with 20 IU/ml IL-2 during 7 days. Cultures were starved overnight with AIMV and then were tested in an intracellular IFNγ and an IFNγ ELISpot assay.
Stimulated T cells (10^5) from each pool were incubated with 2 × 10^5 T2 cells loaded with stimulating peptide in the presence of 20 μg/ml Brefeldin-A (Sigma, Oakville, Canada). Six hours later they were washed, stained with r-phycoerythrin-conjugated anti-CD8 antibody (Caltag Laboratories, Burlingame, CA, USA) in PBS for 25 min at 4°C, washed again, and fixed with 4% PFA. The cells were then permeabilized with PBS, 0.5% BSA, 0.2% saponin (Sigma, Oakville, Canada), and labelled with an allophycocyanin-conjugated anti-IFNγ mAb (PharMingen, Mississauga, Canada) for 25 min at 4°C before analysis with a FACSCalibur® flow cytometer.
Stimulated T cells were splited in four pools and IFNγ producing T cells was quantified in each pool by ELISpot using the Diaclone Kit Human IFNγ ELISpot (Besançon, France) according to manufacturer's recommendations. 250 000 cells were distributed per well and tested for the recognition of 10 μM of either the native or optimized peptide. Positive control was Concanavalin A and negative control was medium alone or an irrelevant peptide. All conditions were tested in sixplicates.

[2] = test system: HLA-B*0702 transgenic mice; experiment: Vaccination of HLA-B*0702 transgenic mice; specific CTLs detected by cytotoxicity or IFNγ ELISPOT; assay type: in vivo, mouse
Protocol: The HLA-B7 H-2 class-I knockout mice were previously described.
Mice were injected subcutaneously with 100 μg of peptide emulsified in Incomplete Freund's Adjuvant (IFA) in the presence of 150 μg of the I-A^b restricted HBVcore128 T helper epitope ([…]) twice at two weeks interval.
A particular protocol was applied for MAGE-A 274L9, with two injections of this peptide at two weeks interval and 15 days later one injection with each one of the native peptide.
On day 6 of culture the bulk responder populations were tested for specific cytotoxicity. […] Percentage of specific lysis was determined as: % Lysis = (Experimental Release-Spontaneous Release) / (Maximal Release-Spontaneous Release) × 100. Spontaneous release is obtained using medium only, maximum release with HCl 0.1 M.
Seven days after the last vaccination, spleens were removed and T cells were isolated by Ficoll centrifugation and tested ex vivo for the recognition of 10 μM of either the native or optimized peptide. IFNγ producing T cells were quantified by ELISpot using the Diaclone Kit Murine IFNγ ELISpot (Besançon, France) according to manufacturer's recommendations. 250 000 spleen T cells were distributed per well and tested for the recognition of 10 μM of either the native or optimized peptide. Positive control was Concanavalin A and negative control was medium alone. All conditions were tested in sixplicates.

| Sequence | RA (Relative Affinity) (HLA-B*0702; 37°C 16 hours, peptide 100 μM to 0.1 μM, ME-1 mAb staining, RA = concentration inducing 20% of HLA-B*0702 expression / that of reference R10V, mean ± SD, at least three experiments, ≥ 10 = 10 or not measurable, SD) | binding to / affinity for HLA-B*0702 (in words) (HLA-B*0702; relative to reference peptide R10V) | immunogenicity in vitro in human PBMC (in words) [1] | Immunogenicity against optimized peptide (number of positive culture/number of total cultures) [1] | Immunogenicity against native peptide (number of positive culture/number of total cultures) ([1]; human healthy donor PBMC stimulated with optimized peptide, T2-B7 cells loaded with corresponding native peptide) | cross recognition of the native peptide by CTLs induced by the optimized peptide in mice (in words) ([2]; HLA-B*0702 transgenic mice, target cells loaded with native peptide) | (Number of spots – background)/10^6 cells ([2]; IFNγ ELISpot, Figure 3, value printed in the picture, mouse vaccinated twice at two weeks interval, statistically significant (*)) | Immunogenicity against optimized peptide (responding mice/vaccinated mice) ([2]; mice vaccinated twice with the optimized peptide, cytotoxicity or IFNγ ELISPOT against target cells loaded with the optimized peptide) | Immunogenicity against native peptide MAGE-A1_267 (responding mice/vaccinated mice) ([2]; mice vaccinated with optimized peptide, target cells loaded with MAGE-A1_267) | Immunogenicity against native peptide MAGE-A2_274 (responding mice/vaccinated mice) ([2]; mice vaccinated with optimized peptide, target cells loaded with MAGE-A2_274) | Immunogenicity against native peptide MAGE-A3_274 (responding mice/vaccinated mice) ([2]; mice vaccinated with optimized peptide, target cells loaded with MAGE-A3_274) | immunogenicity in HLA-B*0702 transgenic mice (in words) ([2]; specific CTL induction after vaccination, cytotoxicity (ratio 30/1) or IFNγ ELISpot) | cross recognition of native peptide by human CTLs induced by the optimized peptide (in words) ([1]; T2-B7 cells loaded with optimized or native peptides, IFNγ staining or ELISPOT) | Immunogenicity against native peptide MAGE-A1_269 (positive culture/total cultures) ([1]; human PBMC stimulated with optimized peptide, targets loaded with MAGE-A1_269 as printed) | Immunogenicity against native peptide MAGE-A2_274 (positive culture/total cultures) ([1]; human PBMC stimulated with optimized peptide, targets loaded with MAGE-A2_274) | Immunogenicity against native peptide MAGE-A3_274 (positive culture/total cultures) ([1]; human PBMC stimulated with optimized peptide, targets loaded with MAGE-A3_274) |
| --- | --- | --- | --- | --- | --- | --- | --- | --- | --- | --- | --- | --- | --- | --- | --- | --- |
| APRRLVQLL [TERT444A1, optimized TERT444, alanine at position 1] | 1.4 ± 0.83 | high HLA-B*0702 affinity | confirmed | 1/2 | 2/2 |  |  |  |  |  |  |  |  |  |  |  |
| GPRALVETL [MAGE-A274 L9, optimized peptide derived from MAGE-A3_274, leucine at position 9] |  |  | confirmed | 2/4 |  | able to recognize target cells loaded with MAGE-A3_274 but also MAGE-A1_267 and MAGE-A2_274 | 3023 /10^6 cells | 18/18 | 3/8 | 3/5 | 4/5 | immunogenic | cross recognition of MAGE-A3_274 and MAGE-A2_274 was confirmed but not for MAGE-A1_267 | 0/4 | 2/4 | 2/4 |
